Source: patent EP4635488A1, “PHARMACEUTICAL COMPOSITION FOR PREVENTING OR TREATING BONE DISEASES” (Industry Foundation of Chonnam National University, priority 2022, dated 2024)

Tested on: RANKL-induced BMM
Experiment: In vitro osteoclast formation assay (TRAP staining / TRAP activity)
Type: cell-based, C57/BL6 mice
Set-up: key to Inhibition rate (%): "Inactive" indicates that the % inhibition is less than 30%
Conditions: 1 µM; osteoclast differentiation in RANKL-induced BMM; mean ± SD from at least three experiments
Protocol: Bone marrow cells (BMC) were obtained from 8-week-old female C57/BL6 mice by washing femurs and tibias with α-MEM. BMCs were then cultured overnight in full α-MEM containing 10% FBS, 100 U/mL penicillin, and 100 µg/mL streptomycin. Non-attached cells were collected and cultured with M-CSF (30 ng/ mL) for 3 days, and then the attached cells were used as BMM. All animal experiments were approved by Chonnam National University IACUC (approval number: CNU IACUC-YB-2019-49).
To generate osteoclasts, BMMs were harvested and cultured in a complete medium containing 30 ng/mL M-CSF and 50 ng/mL RANKL with or without compounds for approximately 4 days to obtain mature osteoclasts. Differentiated osteoclasts were fixed with 4% formalin for 15 minutes, and then the cells were stained using a TRAP staining kit. The spread of osteoclast areas could be observed under the microscope. The viability of BMM (1 × 10^4 cells/well) was assessed in a 96-well plate using a cell viability assay kit as previously described.

Compound | Inhibition rate (%)
COc1ccc(OC(=O)c2cccc(NCC(=O)Nc3ccccc3Sc3ccccc3)c2)cc1 [Compound 25-KR-21, 4-Methoxyphenyl 3-((2-oxo-2-((2-(phenylthio)phenyl)amino)ethyl)amino) benzoate] | 50.91 ± 1.93
O=C(CNc1cccc(C(=O)Oc2ccc(Cl)cc2)c1)Nc1ccccc1Sc1ccccc1 [Compound 25-KR-25, 4-Chlorophenyl 3-((2-oxo-2-((2-(phenylthio)phenyl)amino)ethyl)amino) benzoate] | 43.18 ± 2.32
COc1ccccc1OC(=O)c1cccc(NCC(=O)Nc2ccccc2Sc2ccccc2)c1 [Compound 25-KR-20, 2-Methoxyphenyl 3-((2-oxo-2-((2-(phenylthio)phenyl)amino)ethyl)amino) benzoate] | 52.27±1.11
COC(=O)c1cccc(N(CC(=O)Nc2ccccc2Sc2ccccc2)S(=O)(=O)c2ccc(C)cc2)c1 [Compound 25-KR-26, Methyl 3-((4-methyl-N-(2-oxo-2-((2-(phenylthio)phenyl)amino)ethyl)phenyl)sulfonamido)benzoate] | 49.09 ± 2.32

Same assay, conditions: 2 µM; osteoclast differentiation in RANKL-induced BMM; mean ± SD from at least three experiments

Compound | Inhibition rate (%)
COC(=O)c1cccc(N(CC(=O)Nc2ccccc2Sc2ccccc2)S(C)(=O)=O)c1 [Compound 25-KR-01, Methyl 3-(N-(2-oxo-2-((2-(phenylthio)phenyl)amino)ethyl)methylsulfonamido) benzoate] | Inactive ^c
CS(=O)(=O)N(CC(=O)Nc1ccccc1Sc1ccccc1)c1cccc(C(=O)O)c1 [Compound 25-KR-02, 3-(N-(2-oxo-2-((2-(phenylthio)phenyl)amino)ethyl)methylsulfonamido)benzoic acid] | Inactive ^c
CS(=O)(=O)N(CC(=O)Nc1ccccc1Sc1ccccc1)c1cccc(C(=O)Oc2cccc([N+](=O)[O-])c2)c1 [Compound 25-KR-12, 3-Nitrophenyl 3-(N-(2-oxo-2-((2-(phenylthio)phenyl)amino)ethyl)methylsulfonamido)benzoate] | Inactive ^c
CS(=O)(=O)N(CC(=O)Nc1ccccc1Sc1ccccc1)c1cccc(C(=O)Oc2ccc3ccccc3c2)c1 [Compound 25-KR-15, Naphthalen-2-yl 3-(N-(2-oxo-2-((2-(phenylthio)phenyl)amino)ethyl)methylsulfonamido)benzoate] | Inactive ^c
Cc1ccccc1OC(=O)c1cccc(N(CC(=O)Nc2ccccc2Sc2ccccc2)S(C)(=O)=O)c1 [Compound 25-KR-05, o -Tolyl 3-(N -(2-oxo-2-((2-(phenylthio)phenyl)amino)ethyl)methylsulfonamido) benzoate] | Inactive ^c
CS(=O)(=O)N(CC(=O)Nc1ccccc1Sc1ccccc1)c1cccc(C(=O)Oc2ccc([N+](=O)[O-])cc2)c1 [Compound 25-KR-13, 4-Nitrophenyl 3-(N-(2-oxo-2-((2-(phenylthio)phenyl)amino)ethyl)methylsulfonamido)benzoate] | Inactive ^c
O=C(CNc1cccc(O)c1)Nc1ccccc1Sc1ccccc1 [Compound 25-KR-19, 2-((3-Hydroxyphenyl)amino)-N-(2-(phenylthio)phenyl)acetamide] | Inactive ^c
CS(=O)(=O)N(CC(=O)Nc1ccccc1Sc1ccccc1)c1cccc(C(=O)Oc2ccccc2C#N)c1 [Compound 25-KR-11, 2-Cyanophenyl 3-(N-(2-oxo-2-((2-(phenylthio)phenyl)amino)ethyl)methylsulfonamido)benzoate] | Inactive ^c
Cc1ccc(OC(=O)c2cccc(N(CC(=O)Nc3ccccc3Sc3ccccc3)S(C)(=O)=O)c2)cc1 [Compound 25-KR-07, p -Tolyl 3-(N-(2-oxo-2-((2-(phenylthio)phenyl)amino)ethyl)methylsulfonamido) benzoate] | Inactive ^c
Cc1cccc(OC(=O)c2cccc(N(CC(=O)Nc3ccccc3Sc3ccccc3)S(C)(=O)=O)c2)c1 [Compound 25-KR-06, m -Tolyl 3-(N-(2-oxo-2-((2-(phenylthio)phenyl)amino)ethyl)methylsulfonamido)benzoate] | Inactive ^c
CS(=O)(=O)N(CC(=O)Nc1ccccc1Sc1ccccc1)c1cccc(O)c1 [Compound 25-KR-17, 2-(N-(3-hydroxyphenyl)methylsulfonamido)-N-(2-(phenylthio)phenyl)acetamide] | Inactive ^c
CC(C)(C)[Si](C)(C)Oc1cccc(NCC(=O)Nc2ccccc2Sc2ccccc2)c1 [Compound 25-KR-18, 2-((3-((tert-butyldimethylsilyl)oxy)phenyl)amino)-N-(2-(phenylthio)phenyl)acetamide] | Inactive ^c
CC(C)(C)[Si](C)(C)Oc1cccc(N(CC(=O)Nc2ccccc2Sc2ccccc2)S(C)(=O)=O)c1 [Compound 25-KR-16, 2-(N-(3-((tert-butyldimethylsilyl)oxy)phenyl)methylsulfonamido)-N-(2-(phenylthio)phenyl)acetamide] | Inactive ^c
CC(C)(C)c1ccc(OC(=O)c2cccc(N(CC(=O)Nc3ccccc3Sc3ccccc3)S(C)(=O)=O)c2)cc1 [Compound 25-KR-04, 4-(tert-butyl)phenyl 3-(N-(2-oxo-2-((2-(phenylthio)phenyl)amino)ethyl)methylsulfonamido)benzoate] | Inactive ^c
CS(=O)(=O)N(CC(=O)Nc1ccccc1Sc1ccccc1)c1cccc(C(=O)Oc2cccc3ccccc23)c1 [Compound 25-KR-14, Naphthalen-1-yl 3-(N-(2-oxo-2-((2-(phenylthio)phenyl)amino)ethyl)methylsulfonamido)benzoate] | Inactive ^c

Same assay, conditions: Mus musculus; 1 µM; osteoclast differentiation in RANKL-induced BMM; mean ± SD from at least three experiments; read-out: Inhibition rate (%)

Compound | inhibition at 1 µM [%]
Cc1cccc(OC(=O)c2cccc(NCC(=O)Nc3ccccc3Sc3ccccc3)c2)c1 [Compound 25-KR-23, m-Tolyl 3-((2-oxo-2-((2-(phenylthio)phenyl)amino)ethyl)amino)benzoate] | 46.8 ± 13.4
Cc1ccc(OC(=O)c2cccc(NCC(=O)Nc3ccccc3Sc3ccccc3)c2)cc1 [Compound 25-KR-24, p-Tolyl 3-((2-oxo-2-((2-(phenylthio)phenyl)amino)ethyl)amino)benzoate] | 36.8 ± 7.82
O=C(CNc1cccc(C(=O)O)c1)Nc1ccccc1Sc1ccccc1 [Compound 25-KR-27, 3-((2-oxo-2-((2-(phenylthio)phenyl)amino)ethyl)amino)benzoic acid] | 31.8 ± 1.93
Cc1ccccc1OC(=O)c1cccc(NCC(=O)Nc2ccccc2Sc2ccccc2)c1 [Compound 25-KR-22, o-Tolyl 3-((2-oxo-2-((2-(phenylthio)phenyl)amino)ethyl)amino)benzoate] | 47.7 ± 11.4

Same assay, conditions: Mus musculus; 2 µM; osteoclast differentiation in RANKL-induced BMM; mean ± SD from at least three experiments; read-out: Inhibition rate (%)

Compound | inhibition at 2 µM [%]
CS(=O)(=O)N(CC(=O)Nc1ccccc1Sc1ccccc1)c1cccc(C(=O)Oc2ccc(Cl)cc2)c1 [Compound 25-KR-10, 4-Chlorophenyl 3-(N-(2-oxo-2-((2-(phenylthio)phenyl)amino)ethyl)methylsulfonamido)benzoate] | 47.4 ± 9.79
NCCCC(O)(P(=O)(O)O)P(=O)(O)O [Alendronate, reference compound] | 41.2 ± 8.68
COc1ccc(OC(=O)c2cccc(N(CC(=O)Nc3ccccc3Sc3ccccc3)S(C)(=O)=O)c2)cc1 [Compound 25-KR-09, 4-Methoxyphenyl 3-(N-(2-oxo-2-((2-(phenylthio)phenyl)amino)ethyl)methylsulfonamido)benzoate] | 45.8 ± 3.65
COc1ccccc1OC(=O)c1cccc(N(CC(=O)Nc2ccccc2Sc2ccccc2)S(C)(=O)=O)c1 [Compound 25-KR-08, 2-Methoxyphenyl 3-(N-(2-oxo-2-((2-(phenylthio)phenyl)amino)ethyl)methylsulfonamido)benzoate] | 37.6 ± 8.21

Same assay, conditions: SAR summary in words of Table 2 (2 µM)

Compound | inhibitory effects on osteoclast formation
CS(=O)(=O)N(CC(=O)Nc1ccccc1Sc1ccccc1)c1cccc(C(=O)Oc2ccc(Cl)cc2)c1 [Compound 25-KR-10, 4-Chlorophenyl 3-(N-(2-oxo-2-((2-(phenylthio)phenyl)amino)ethyl)methylsulfonamido)benzoate] | moderate inhibitory effects
COc1ccc(OC(=O)c2cccc(N(CC(=O)Nc3ccccc3Sc3ccccc3)S(C)(=O)=O)c2)cc1 [Compound 25-KR-09, 4-Methoxyphenyl 3-(N-(2-oxo-2-((2-(phenylthio)phenyl)amino)ethyl)methylsulfonamido)benzoate] | moderate inhibitory effects
COc1ccccc1OC(=O)c1cccc(N(CC(=O)Nc2ccccc2Sc2ccccc2)S(C)(=O)=O)c1 [Compound 25-KR-08, 2-Methoxyphenyl 3-(N-(2-oxo-2-((2-(phenylthio)phenyl)amino)ethyl)methylsulfonamido)benzoate] | moderate inhibitory effects

Tested on: OVX-induced osteoporosis mouse model
Experiment: OVX-induced osteoporosis mouse model (micro-CT, body weight)
Type: in vivo, C57BL/6 female mice
Conditions: 20 mg/kg intraperitoneally once daily for 4 weeks after surgery; compared with the OVX group
Protocol: Specific pathogen-free facilities were used to grow mice. To investigate the effects of 25-KR-03 in vivo, the inventors established an OVX-induced osteoporosis mouse model as previously described. Seven-week-old C57BL/6 female mice were divided into four groups (Sham, OVX, 25-KR-03, and PMSA-3-Ac). Among them, the OVX, 25-KR-03, and PMSA-3-Ac groups underwent OVX surgery.
After a 1-week recovery period, mice were intraperitoneally injected with 25-KR-03 or PMSA-3-Ac (20 mg/kg, dissolved in a mixture of 10 % Tween 80 and 10% DMSO) once daily for 4 weeks. The sham and control (OVX) groups received equal volumes of the mixture of 10 % Tween 80 and 10% DMSO once daily for 4 weeks. Body weights of the mice were measured weekly. When the mice were euthanized, the femurs were isolated and fixed in 4.0% paraformaldehyde for micro-computed tomography (micro-CT) analysis as previously performed.
Micro-CT scanning was performed as in previous studies. The Quantum GX Micro-CT imaging system (PerkinElmer, Hopkinton, MA, USA) was used at the Korea Basic Science Institute (Gwangju, Korea).

Compound | prevention of bone loss (Tb.Th and BMD values, micro-CT of femur)
CC(=O)c1cccc(N(CC(=O)Nc2ccccc2Sc2ccccc2)S(C)(=O)=O)c1 [PMSA-3-Ac, reference compound] | no significant effect
